A word on the IC50: it is the concentration needed to halve the response being measured. Broadly, the Cmax is the highest concentration seen after dosing.

Values after ≈ are worked out from the molar mass of the structure shown.

The test system of data set [1] is Trypanosoma brucei rhodesiense. Kind of data set: Antitrypanosomal activity against Trypanosoma brucei rhodesiense STIB 900 after 72 hrs by alamar blue staining based fluorescence analysis. Format: functional, organism-based. Particulars: STIB 900, 72 h.
The test system of data set [2] is Trypanosoma cruzi. Briefly: Antitrypanosomal activity against trypomastigote forms of Trypanosoma cruzi Tulahuen C2C4 infected in rat L6 cells after 96 hrs by photometric method. Format: functional, organism-based. Particulars: Tulahuen C2C4, L6, 96 h.
The test system of data set [3] is Leishmania donovani. Briefly: Antileishmanial activity against Leishmania donovani MHOM/ET/67/L82 after 72 hrs by Alamar blue dye based fluorescence analysis. Format: functional, organism-based. To be noted: MHOM/ET/67/L82, 72 h. In general terms: Alamar Blue is a resazurin reagent that responds to reducing activity.
In data set [4] the target is T1, Arginase-1 (Rattus norvegicus, UniProt P07824).
T1 sequence (P07824 whole entry): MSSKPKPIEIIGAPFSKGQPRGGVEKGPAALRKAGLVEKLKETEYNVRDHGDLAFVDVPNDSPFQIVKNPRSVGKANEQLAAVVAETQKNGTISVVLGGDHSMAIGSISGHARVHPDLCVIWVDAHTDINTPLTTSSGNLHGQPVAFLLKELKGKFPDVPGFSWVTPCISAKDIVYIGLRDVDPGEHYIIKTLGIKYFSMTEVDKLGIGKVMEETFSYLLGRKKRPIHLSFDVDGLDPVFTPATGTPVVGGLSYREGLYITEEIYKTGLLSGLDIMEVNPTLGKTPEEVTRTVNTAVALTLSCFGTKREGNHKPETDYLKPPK
Briefly: Inhibition of recombinant rat liver arginase expressed without histidine tail assessed as urea formation using L-arginine as substrate after 15 mins by Berthelot assay.

Data set [5] has as its system L6. Briefly: Cytotoxicity against rat L6 cells after 72 hrs by alamar blue staining based fluorescence analysis. Format: functional, cell-based. Particulars: L6, 72 h.
A short description of data set [6]: Cytotoxicity against human U937 cells after 72 hrs by MTT assay. Format: functional. Particulars: U-937, 72 h, read-out: LD50 (the source's name).
The test system of data set [7] is Plasmodium falciparum. Kind of data set: Antimalarial activity against chloroquine-sensitive Plasmodium falciparum 3D7 after 48 hrs by ethidium bromide staining based fluorometric method. To be noted: 3D7, 48 h. Format: functional, organism-based.
In data set [8] the test system is Plasmodium falciparum. Briefly: Antimalarial activity against chloroquine and pyrimethamine-resistant Plasmodium falciparum K1 infected in human red blood cells after 48 hrs by [3H]hypoxanthine incorporation assay. Format: functional, organism-based.
Data set [9] concerns Trypanosoma cruzi. Briefly: Antitrypanosomal activity against trypomastigote forms of Trypanosoma cruzi Tulahuen C2C4 infected in rat L6 cells assessed as inhibition of growth after 96 hrs by inverted microscopy. Format: functional, organism-based. Particulars: Tulahuen C2C4, L6, 96 h.
The subject of data set [10] is Leishmania donovani. Briefly: Antileishmanial activity against Leishmania donovani MHOM/ET/67/L82 after 72 hrs by resazurin dye based fluorescence analysis. To be noted: MHOM/ET/67/L82, 72 h. Format: functional, organism-based.
Data set [11] concerns Leishmania donovani. Briefly: Antileishmanial activity against […] Leishmania donovani MHOM/KE/85/NLB439 in human peripheral blood monocyte derived macrophages assessed as growth inhibition after 24 hrs by [3H]-thymidine incorporation assay. Format: functional, organism-based.
Data set [12] deals with Leishmania major. Briefly: Antileishmanial activity against promastigote Leishmania major MHOM/IL/67/LRC-L137 assessed as growth inhibition after 2 hrs by [3H]-thymidine incorporation assay. Format: functional, organism-based. For orientation: Uptake of a labelled nucleoside into DNA is a usual measure of proliferation.
Data set [13] concerns Leishmania amazonensis. Briefly: Antileishmanial activity against amastigote Leishmania amazonensis relative to control. Format: functional.
Data set [14] has as its system Leishmania amazonensis. Briefly: Antileishmanial activity against amastigote Leishmania amazonensis. Format: functional, organism-based.
Data set [15] in a line: Cytotoxicity against HEK293T cells. To be noted: Homo sapiens, HEK-293T. Format: cell-based.
Data set [16] can be described thus: Cytotoxicity against mouse J774.1 cells. Format: cell-based.
The subject of data set [17] is Leishmania major. Briefly: Antileishmanial activity against Leishmania major promastigotes. Format: functional. To be noted: read-out: LD50 (the source's name).
Data set [18] deals with Trypanosoma brucei. Briefly: Antitrypanosomal activity against Trypanosoma brucei. Format: functional, organism-based.
Data set [19] concerns Plasma. Briefly: Plasma concentration in human at […], administered orally by HPLC method in presence of 20 mg piperine. Particulars: po. Format: ADME, cell-free.
In data set [20] the test system is Trypanosoma brucei brucei. Briefly: Antitrypanosomal activity against Trypanosoma brucei brucei. Format: functional, organism-based.
In data set [21] the test system is Plasmodium falciparum. Briefly: Antimalarial activity against chloroquine-sensitive Plasmodium falciparum 3D7 after 24 hrs by [3H]hypoxanthine labeling method. Format: functional, organism-based.
Data set [22] relates to Plasmodium falciparum. Briefly: Antiplasmodial activity against chloroquine-resistant Plasmodium falciparum FcB1/Colombia after 24 hrs by [3H]hypoxanthine incorporation assay. Format: functional, organism-based.
The subject of data set [23] is Leishmania donovani. Briefly: Antileishmanial activity against Leishmania donovani MHOM/ET/67/HU3 after 5 days by Giemsa staining based microscopic analysis. Format: functional, organism-based. To be noted: MHOM/ET/67/HU3, 120 h.
Data set [24] in a line: Cmax in Wistar rat at 50 mg/kg administered as lipid nanoparticle suspension after 2 hrs by UPLC method. Format: ADME, organism-based. On the set-up: dose 50 mg/kg. To be noted: in vivo.
For data set [25], the system named is Leishmania tropica. Briefly: Antileishmanial activity against Leishmania tropica MHOM/IR/2002/Mash2 assessed as cell viability after 72 hrs by MTT assay. Format: functional, organism-based. Particulars: MHOM/IR/2002/Mash2, 72 h.
Data set [26] has as its system Leishmania infantum. Briefly: Antileishmanial activity against Leishmania infantum MCAN/IR/07/Moheb-gh assessed as cell viability after 72 hrs by MTT assay. Format: functional, organism-based. A general note: Tetrazolium dyes change colour on reduction, which living cells bring about.
Data set [27] is described as follows: Cmax in Wistar rat at 50 mg/kg after 2 hrs by UPLC method. Format: ADME, organism-based. The arrangement: dose 50 mg/kg. To be noted: in vivo.

Take `O=c1c(O)c(-c2ccc(O)c(O)c2)oc2cc(O)cc(O)c12` [QUERCETIN]: the IC50 in data set [1] was 8.3 µg/mL; in data set [2], more than 30 µg/mL; in [3], 1 µg/mL (≈ 3.31 µM).
Turning to `O=c1cc(-c2ccc(O)c(O)c2)oc2cc(O)cc(O)c12` [LUTEOLIN], the half-maximal inhibitory concentration (IC50) in [1] was determined as 3.7 µg/mL; in [4], 9 µM; in [5], 9.4 µg/mL; in data set [2] it was 21.4 µg/mL (≈ 74.8 µM); in data set [3], 0.8 µg/mL (≈ 2.79 µM).
Turning to `CC(C)=CCc1c(O)c(O)c(O)c2c(=O)c3c(CC=C(C)C)c(O)c(O)cc3oc12`, the CC50 in [6] amounted to 263 µM. The IC50 in [7] amounted to 12.4 µM.
Regarding `O=c1c(O)c(-c2ccc(O)c(O)c2)oc2cc(O)ccc12` [FISETIN], the IC50 is 3.3 µg/mL in data set [1]; 1.4 µM in data set [4]; 38.5 µg/mL in data set [5]; more than 30 µg/mL in [2]; 0.6 µg/mL (≈ 2.1 µM) in [3].
`C/C=C(\C)CO[C@@H]1CC([C@@H](O)[C@]2(C)C=C3OC(=O)C4=C3[C@H]2[C@H]2OC(=O)[C@H](C)[C@@H]2[C@H](OC/C(C)=C/C)C4)=C2C(=O)C=C(C)[C@@H]2[C@H]2OC(=O)[C@H](C)[C@@H]21`: the IC50 in [1] amounted to 6.2 µM; in [5] it was 16.2 µM; in data set [8], 2 µM; in data set [9], 30.3 µM; in data set [10] it was 10.2 µM.
As for `C=CC(C)(C)c1cc(/C=C/C(=O)c2ccc(O)cc2)c(OC)cc1O` [LICOAGROCHACONE A], the IC50 in [11] amounted to 0.9 µM; in data set [12], 7.2 µM.
Turning to `O=c1c(O[C@@H]2O[C@H](CO)[C@@H](O)[C@H](O)[C@H]2O)c(-c2ccc(O)c(O)c2)oc2cc(O)cc(O)c12` [ISOQUERCETIN], the Activity in data set [13] stood at 40%. Also, the IC50 in data set [14] worked out at 0.78 µg/mL (≈ 1.68 µM).
Take `COc1cc(/C=C/C(=O)CC(=O)/C=C/c2ccc(O)c(OC)c2)ccc1O` [CURCUMIN]: the half-maximal inhibitory concentration (IC50) in [15] was found to be 15.2 µM; in [16], 31 µM; in data set [18], 3.6 µM; in data set [21], 25 µM. Also, the LC50 in [17] stood at 37.6 µM; in data set [20] (read-out: LD50 (the source's name)), 46.5 µM. In addition, in data set [19], the Cp came to 180 ng/mL.
Take `COc1ccc(CC[C@H](O)C[C@H](CCc2ccc(O)c(O)c2)O[C@@H]2O[C@H](CO)[C@@H](O)[C@H](O)[C@H]2O)cc1`: the IC50 in data set [22] is more than 20 µM; in data set [23] it was 30 µM; in data set [20], more than 100 µM.
Consider `CC1=CC(=O)C(C(C)C)=CC1=O` [THYMOQUINONE], for which the Cmax is 900 ng/mL in [24] and 400 ng/mL in data set [27]. The values for the concentration for half-maximal inhibition (IC50) in data set [25] and in [26] were 1.16 µg/mL (≈ 7.06 µM) and 1.47 µg/mL (≈ 8.95 µM), respectively.
For the compound `O=c1cc(-c2ccc(O)cc2)oc2cc(O)cc(O)c12` [APIGENIN], the IC50 was determined as 5.1 µg/mL in data set [1], 18.1 µg/mL in data set [5], 21.8 µg/mL (≈ 80.7 µM) in data set [2] and 1.9 µg/mL (≈ 7.03 µM) in [3].
Consider `OC[C@H]1O[C@@H](O[C@@H](CCc2ccc(O)c(O)c2)C[C@@H](O)CCc2ccc(O)c(O)c2)[C@H](O)[C@@H](O)[C@@H]1O`, for which the IC50 in data set [22] was more than 20 µM; in [23], 30 µM; in data set [20], 25 µM.
Take `COc1ccc(CC[C@@H](C[C@H](CCc2ccc(O)c(O)c2)O[C@@H]2O[C@H](CO)[C@@H](O)[C@H](O)[C@H]2O)OC=O)cc1`: the IC50 in data set [22] is more than 20 µM; in [23], 30 µM; in data set [20], 25 µM.
For `O=CO[C@@H](CCc1ccc(O)c(O)c1)C[C@H](CCc1ccc(O)c(O)c1)O[C@@H]1O[C@H](CO)[C@@H](O)[C@H](O)[C@H]1O`, the IC50 in data set [22] was more than 20 µM; in data set [23], 30 µM; in data set [20], 25 µM.
Regarding `C[C@@H]1O[C@@H](Oc2c(-c3ccc(O)c(O)c3)oc3cc(O)cc(O)c3c2=O)[C@H](O)[C@H](O)[C@H]1O` [QUERCITRIN], the IC50 in data set [1] is 27.9 µg/mL; in data set [5], more than 90 µg/mL; in [2], more than 30 µg/mL; in [3], 17.7 µg/mL (≈ 39.5 µM).

These data come from ChEMBL document CHEMBL3785025, “Focus on PAINS: false friends in the quest for selective anti-protozoal lead structures from Nature?” (Medchemcomm, 2016).
